For 27 compounds, IC50 results are on record in US8471005B2 (Cephalon, Inc., priority 2008, dated 2013).

Read-outs that look alike come from different tables or passages of the source. Where only a bound is given, the exact number is not on record here.

Assay [1] addresses T1, ALK (Homo sapiens, UniProt Q9UM73).
T1 construct: host or cells: baculovirus expression system
Put plainly: ALK Kinase Assay (ELISA/TRF, PLC-γ substrate). Particulars: read-out: ALK Potency. Format: biochemical. Summed up: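 Read-out is time-resolved fluorescence from a Eu-N1-labeled PT66 antibody that binds phosphorylated PLC-γ, the substrate coated at 10 μg/mL in TBS. ALK at 30 ng/ml starts the reaction, which runs 15 minutes at 37° C.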
In general terms: ELISA stands for enzyme-linked immunosorbent assay.

The target of assay [2] is T2, JAK2 (Homo sapiens, UniProt O60674).
T2 construct: host or cells: baculovirus expression system
T2 sequence (O60674 whole entry): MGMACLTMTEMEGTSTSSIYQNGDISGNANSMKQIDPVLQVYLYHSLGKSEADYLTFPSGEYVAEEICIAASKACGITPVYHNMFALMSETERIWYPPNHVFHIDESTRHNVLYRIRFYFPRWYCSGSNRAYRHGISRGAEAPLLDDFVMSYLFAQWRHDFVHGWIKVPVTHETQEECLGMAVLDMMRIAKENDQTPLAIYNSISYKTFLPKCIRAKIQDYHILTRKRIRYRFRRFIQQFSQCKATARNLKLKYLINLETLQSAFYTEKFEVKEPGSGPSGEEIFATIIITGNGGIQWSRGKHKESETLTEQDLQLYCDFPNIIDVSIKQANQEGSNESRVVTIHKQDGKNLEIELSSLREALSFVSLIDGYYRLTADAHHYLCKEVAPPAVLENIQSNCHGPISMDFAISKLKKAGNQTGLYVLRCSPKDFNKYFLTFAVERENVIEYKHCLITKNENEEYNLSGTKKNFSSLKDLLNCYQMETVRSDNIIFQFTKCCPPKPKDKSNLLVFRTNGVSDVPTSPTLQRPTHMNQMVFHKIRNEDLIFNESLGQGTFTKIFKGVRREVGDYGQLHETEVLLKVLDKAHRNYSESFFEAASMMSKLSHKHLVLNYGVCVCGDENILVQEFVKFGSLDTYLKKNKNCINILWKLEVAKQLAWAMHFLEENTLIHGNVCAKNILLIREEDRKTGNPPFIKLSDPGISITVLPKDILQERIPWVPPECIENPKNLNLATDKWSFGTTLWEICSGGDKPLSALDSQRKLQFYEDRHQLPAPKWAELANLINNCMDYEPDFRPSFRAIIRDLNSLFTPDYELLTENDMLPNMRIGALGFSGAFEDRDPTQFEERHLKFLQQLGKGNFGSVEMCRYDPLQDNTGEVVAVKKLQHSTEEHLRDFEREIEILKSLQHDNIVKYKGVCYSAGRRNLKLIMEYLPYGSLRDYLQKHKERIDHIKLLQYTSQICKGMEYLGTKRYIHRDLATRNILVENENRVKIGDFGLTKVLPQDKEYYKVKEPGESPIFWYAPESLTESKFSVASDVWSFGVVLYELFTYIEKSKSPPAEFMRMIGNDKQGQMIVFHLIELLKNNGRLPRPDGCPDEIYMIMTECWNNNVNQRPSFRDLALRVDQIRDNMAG
The experiment in a line: Recombinant Human JAK2 Kinase Assay (TRF). Format: biochemical. The note with it: read-out: JAK2 Potency. Summed up: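 Baculovirus-expressed JAK2 (15 ng/ml) phosphorylated a biotinylated 15-mer peptide captured on Neutravidin-coated plates, in 20 mM HEPES pH 7.2 with 0.2 μM ATP, 1 mM MnCl2, 0.1% BSA and 2.5% DMSO. Reaction ran 20 min at room temperature; phosphopeptide was detected by time-resolved fluorescence with Eu-N1-labelled PY100 antibody.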

Setting [3] is: ALK kinase inhibition, 1 μM ATP.
Where [4] appears, read: JAK2 kinase inhibition, 0.2 μM ATP.

T1 sequence (Q9UM73 19-1620): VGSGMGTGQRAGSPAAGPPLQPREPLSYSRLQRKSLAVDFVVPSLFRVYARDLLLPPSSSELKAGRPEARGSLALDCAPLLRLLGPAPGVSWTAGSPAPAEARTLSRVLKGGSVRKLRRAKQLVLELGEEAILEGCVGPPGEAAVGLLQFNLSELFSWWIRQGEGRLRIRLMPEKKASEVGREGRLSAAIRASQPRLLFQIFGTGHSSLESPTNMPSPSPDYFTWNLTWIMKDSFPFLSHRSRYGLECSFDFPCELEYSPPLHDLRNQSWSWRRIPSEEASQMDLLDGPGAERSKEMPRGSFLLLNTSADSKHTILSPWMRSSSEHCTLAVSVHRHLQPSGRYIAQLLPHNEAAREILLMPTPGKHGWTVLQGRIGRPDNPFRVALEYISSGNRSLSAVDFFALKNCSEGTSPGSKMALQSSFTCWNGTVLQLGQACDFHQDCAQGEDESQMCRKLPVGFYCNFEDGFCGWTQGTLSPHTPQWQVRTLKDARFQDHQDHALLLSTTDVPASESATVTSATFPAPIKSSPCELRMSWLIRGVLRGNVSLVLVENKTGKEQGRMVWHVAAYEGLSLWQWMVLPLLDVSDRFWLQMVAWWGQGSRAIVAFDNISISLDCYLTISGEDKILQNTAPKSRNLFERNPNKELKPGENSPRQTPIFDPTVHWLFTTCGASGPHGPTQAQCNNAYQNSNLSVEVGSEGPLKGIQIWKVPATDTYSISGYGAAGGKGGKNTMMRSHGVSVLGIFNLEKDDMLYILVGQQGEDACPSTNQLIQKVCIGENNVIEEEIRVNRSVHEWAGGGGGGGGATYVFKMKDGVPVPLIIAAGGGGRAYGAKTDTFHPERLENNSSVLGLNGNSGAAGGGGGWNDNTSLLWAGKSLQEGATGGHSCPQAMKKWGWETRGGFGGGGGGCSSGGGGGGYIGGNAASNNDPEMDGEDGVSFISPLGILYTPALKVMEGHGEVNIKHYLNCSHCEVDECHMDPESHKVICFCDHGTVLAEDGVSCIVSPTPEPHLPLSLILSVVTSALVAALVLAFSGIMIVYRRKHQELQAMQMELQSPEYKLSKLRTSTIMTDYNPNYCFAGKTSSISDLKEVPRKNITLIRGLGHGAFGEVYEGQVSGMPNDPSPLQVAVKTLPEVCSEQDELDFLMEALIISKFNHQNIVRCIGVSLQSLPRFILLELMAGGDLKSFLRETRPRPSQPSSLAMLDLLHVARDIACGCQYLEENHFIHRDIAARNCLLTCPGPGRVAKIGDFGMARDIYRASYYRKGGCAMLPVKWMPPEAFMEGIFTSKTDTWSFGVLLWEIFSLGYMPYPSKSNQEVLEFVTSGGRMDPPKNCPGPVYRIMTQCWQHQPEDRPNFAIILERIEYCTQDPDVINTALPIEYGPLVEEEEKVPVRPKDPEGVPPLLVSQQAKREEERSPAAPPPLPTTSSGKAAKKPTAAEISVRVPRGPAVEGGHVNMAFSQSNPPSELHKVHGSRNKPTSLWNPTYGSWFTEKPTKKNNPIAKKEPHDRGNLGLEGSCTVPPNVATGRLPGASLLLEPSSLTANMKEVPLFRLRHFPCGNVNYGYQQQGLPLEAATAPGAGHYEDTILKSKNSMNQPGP

As to `Oc1ccc(-c2ccc3cnc(Nc4ccc(N5CCOCC5)cc4)nn23)cn1` [Example 331, 5-[2-(4-Morpholin-4-yl-phenylamino)-pyrrolo[2,1-f][1,2,4]triazin-7-yl]-pyridin-2-ol], the IC50 in assay [1] (ALK Kinase Inhibition) is 1 to 10 µM; in assay [2] (JAK2 Kinase Inhibition), < 0.1 µM.

Consider `c1cncc(-c2ccc3cnc(Nc4cc[nH]n4)nn23)c1` [Example 124, (1H-Pyrazol-3-yl)-(7-pyridin-3-yl-pyrrolo[2,1-f][1,2,4]triazin-2-yl)-amine], for which the values for the IC50 in assay [1] (ALK Kinase Inhibition) and in assay [2] (JAK2 Kinase Inhibition) were 1 to 10 µM and < 0.1 µM, respectively.

As to `COc1cc(N2CCN(C[C@H](C)O)CC2)ccc1Nc1ncc2ccc(-c3ccccc3OC)n2n1` [Example 753, (S)-1-(4-{3-Methoxy-4-[7-(2-methoxy-phenyl)-pyrrolo[2,1-f][1,2,4]triazin-2-ylamino]-phenyl}-piperazin-1-yl)-propan-2-ol], the IC50 in assay [1] (setting [3]) and in assay [2] (setting [4]) was < 0.1 µM in each case.

Regarding `NC(=O)CN1CCC(c2ccc(Nc3ncc4ccc(-c5cccc6c5OC(F)(F)O6)n4n3)cc2)CC1` [Example 1540, 2-(4-{4-[7-(2,2-Difluoro-benzo[1,3]dioxol-4-yl)-pyrrolo[2,1-f][1,2,4]triazin-2-ylamino]-phenyl}-piperidin-1-yl)-acetamide], the IC50 in assay [1] (ALK Kinase Inhibition) was 0.1 to 1 µM; in assay [2] (JAK2 Kinase Inhibition) it was < 0.1 µM.

As for `COc1ccc(-c2ccc3cnc(Nc4ccc5c(c4)N(S(C)(=O)=O)CCC5)nn23)cn1` [Example 1061, (1-Methanesulfonyl-1,2,3,4-tetrahydro-quinolin-7-yl)-[7-(6-methoxy-pyridin-3-yl)-pyrrolo[2,1-f][1,2,4]triazin-2-yl]-amine], the IC50 in assay [1] (setting [3]) was > 10 µM; in assay [2] (setting [4]) it was < 0.1 µM.

`COc1cc(Nc2ncc3ccc(-c4cccc(Cl)c4)n3n2)cc(OC)c1OC` [Example 143, [7-(3-Chloro-phenyl)-pyrrolo[2,1-f][1,2,4]triazin-2-yl]-(3,4,5-trimethoxy-phenyl)-amine]: the IC50 in assay [1] (ALK Kinase Inhibition) is 0.1 to 1 µM; in assay [2] (JAK2 Kinase Inhibition), < 0.1 µM.

As to `Cc1c(Nc2ncc3ccc(-c4ccccc4N(C)S(C)(=O)=O)n3n2)ccc2[nH]c(=O)oc12` [Example 1493, N-Methyl-N-{2-[2-(7-methyl-2-oxo-2,3-dihydro-benzoxazol-6-ylamino)-pyrrolo[2,1-f][1,2,4]triazin-7-yl]-phenyl}-methanesulfonamide], the IC50 in assay [1] (ALK Kinase Inhibition) and in assay [2] (JAK2 Kinase Inhibition) was 0.1 to 1 µM in each case.

For the compound `c1c[nH]c(-c2ccc3cnc(Nc4ccc(N5CCOCC5)cc4)nn23)c1` [Example 1291, (4-Morpholin-4-yl-phenyl)-[7-(1H-pyrrol-2-yl)-pyrrolo[2,1-f][1,2,4]triazin-2-yl]-amine], the figures for the IC50 in assay [1] (setting [3]) and in assay [2] (setting [4]) were 1 to 10 µM and < 0.1 µM, respectively.

On to `CN1CCN(CC2CCCN(c3ccc(Nc4ncc5ccc(-c6ccccc6N(C)S(C)(=O)=O)n5n4)cc3)C2)CC1` (stereo not drawn) [Example 455, N-Methyl-N-[2-(2-{4-[3-(4-methyl-piperazin-1-ylmethyl)-piperidin-1-yl]-phenylamino}-pyrrolo[2,1-f][1,2,4]triazin-7-yl)-phenyl]-methanesulfonamide], for which the IC50 in assay [1] (ALK Kinase Inhibition) and in assay [2] (JAK2 Kinase Inhibition) was < 0.1 µM in each case.

As for `COc1cc2c(cc1Nc1ncc3ccc(-c4cccc5c4OCC5)n3n1)CCN(CC(N)=O)CC2` [Example 708, 2-{7-[7-(2,3-Dihydro-benzofuran-7-yl)-pyrrolo[2,1-f][1,2,4]triazin-2-ylamino]-8-methoxy-1,2,4,5-tetrahydro-3-benzazepin-3-yl}-acetamide], the IC50 is < 0.1 µM in assay [1] (setting [3]) and 0.1 to 1 µM in assay [2] (setting [4]).

As to `CCc1cc(-c2ccccc2OC)n2nc(Nc3ccc(N4CCN(C)CC4)cc3)ncc12` [Example 106, [5-Ethyl-7-(2-methoxy-phenyl)-pyrrolo[2,1-f][1,2,4]triazin-2-yl]-[4-(4-methyl-piperazin-1-yl)-phenyl]-amine], the IC50 in assay [1] (ALK Kinase Inhibition) is 0.1 to 1 µM; in assay [2] (JAK2 Kinase Inhibition) it was < 0.1 µM.

Take `COc1ccc(-c2ccc3cnc(Nc4cccc(NC(=O)[C@@H](C)OC)c4)nn23)cn1` [Example 900, (R)-2-Methoxy-N-{3-[7-(6-methoxy-pyridin-3-yl)-pyrrolo[2,1-f][1,2,4]triazin-2-ylamino]-phenyl}-propionamide]: the IC50 was 0.1 to 1 µM in assay [1] (setting [3]) and < 0.1 µM in assay [2] (setting [4]).

Regarding `COc1ccccc1-c1ccc2cnc(-c3nnc(C)[nH]3)nn12` [Example 1501, 7-(2-Methoxy-phenyl)-2-(5-methyl-4H-[1,2,4]triazol-3-yl)-pyrrolo[2,1-f][1,2,4]triazine], the IC50 in assay [1] (ALK Kinase Inhibition) and in assay [2] (JAK2 Kinase Inhibition) was > 10 µM in each case.

As for `CC(C)(C)NS(=O)(=O)c1cccc(-c2ccc3cnc(Nc4ccc(C5CN(CC(N)=O)C5)cc4)nn23)c1` [Example 577, 2-(3-{4-[7-(3-tert-Butylsulfamoyl-phenyl)-pyrrolo[2,1-f][1,2,4]triazin-2-ylamino]-phenyl}-azetidin-1-yl)-acetamide], the IC50 in assay [1] (setting [3]) was 0.1 to 1 µM; in assay [2] (setting [4]), < 0.1 µM.

As to `COc1cc(C2CCN(CC(N)=O)C2)ccc1Nc1ncc2ccc(-c3ccccc3OC)n2n1` (racemic) [Example 836, (±)-2-(3-{3-Methoxy-4-[7-(2-methoxy-phenyl)-pyrrolo[2,1-f][1,2,4]triazin-2-ylamino]-phenyl}-pyrrolidin-1-yl)-acetamide], the IC50 in assay [1] (setting [3]) and in assay [2] (setting [4]) was < 0.1 µM in each case.

`C[C@H](O)CN1CCN(c2cc(F)c(Nc3ncc4ccc(-c5ccccc5N(C)S(C)(=O)=O)n4n3)cc2F)CC1` [Example 1482, N-[2-(2-{2,5-Difluoro-4-[4-((S)-2-hydroxy-propyl)-piperazin-1-yl]-phenylamino}-pyrrolo[2,1-f][1,2,4]triazin-7-yl)-phenyl]-N-methyl-methanesulfonamide]: the IC50 in assay [1] (ALK Kinase Inhibition) was 0.1 to 1 µM; in assay [2] (JAK2 Kinase Inhibition), < 0.1 µM.

With `CNS(=O)(=O)c1cccc(-c2ccc3cnc(Nc4ccc(N5CCN(C)CC5)cc4)nn23)c1` [Example 366, N-Methyl-3-{2-[4-(4-methyl-piperazin-1-yl)-phenylamino]-pyrrolo[2,1-f][1,2,4]triazin-7-yl}-benzenesulfonamide], the IC50 is 0.1 to 1 µM in assay [1] (ALK Kinase Inhibition) and < 0.1 µM in assay [2] (JAK2 Kinase Inhibition).

Regarding `CN1CCN(c2ccc(Nc3ncc4ccc(-c5ccc(S(C)(=O)=O)cc5)n4n3)cn2)CC1` [Example 1110, [7-(4-Methanesulfonyl-phenyl)-pyrrolo[2,1-f][1,2,4]triazin-2-yl]-[6-(4-methyl-piperazin-1-yl)-pyridin-3-yl]-amine], the IC50 is 0.1 to 1 µM in assay [1] (setting [3]) and < 0.1 µM in assay [2] (setting [4]).

For the compound `COc1ccc(-c2ccc3cnc(Nc4ccc(C5CCN(CC(N)=O)CC5)c(OC)c4)nn23)cn1` [Example 911, 2-(4-{2-Methoxy-4-[7-(6-methoxy-pyridin-3-yl)-pyrrolo[2,1-f][1,2,4]triazin-2-ylamino]-phenyl}-piperidin-1-yl)-acetamide], the IC50 in assay [1] (setting [3]) and in assay [2] (setting [4]) was < 0.1 µM each time.

For `COc1ccc(-c2ccc3cnc(Nc4cccc(C#N)c4)nn23)cn1` [Example 974, 3-[7-(6-Methoxy-pyridin-3-yl)pyrrolo[2,1f][1,2,4]triazin-2-ylamino]-benzonitrile], the IC50 in assay [1] (setting [3]) was 1 to 10 µM; in assay [2] (setting [4]), < 0.1 µM.

On to `CC(C)(C)NS(=O)(=O)c1cccc(-c2ccc3cnc(Nc4ccc5[nH]c(=O)[nH]c5c4)nn23)c1` [Example 1298, N-tert-Butyl-3-[2-(2-oxo-2,3-dihydro-1H-benzimidazol-5-ylamino)-pyrrolo[2,1-f][1,2,4]triazin-7-yl]-benzenesulfonamide], for which the IC50 in assay [1] (setting [3]) is 0.1 to 1 µM; in assay [2] (setting [4]), < 0.1 µM.

Regarding `COc1ccc(-c2ccc3cnc(Nc4cccc(NC(=O)CN(C)C)c4)nn23)cn1` [Example 899, 2-Dimethylamino-N-{3-[7-(6-methoxy-pyridin-3-yl)-pyrrolo[2,1-f][1,2,4]triazin-2-ylamino]-phenyl}-acetamide], the IC50 in assay [1] (setting [3]) is 0.1 to 1 µM; in assay [2] (setting [4]), < 0.1 µM.

Consider `COc1cc(N2CCC(C(=O)N3CCN(C)CC3)CC2)ccc1Nc1ncc2ccc(-c3ccccc3OC)n2n1` [Example 458, (1-{3-Methoxy-4-[7-(2-methoxy-phenyl)-pyrrolo[2,1-f][1,2,4]triazin-2-ylamino]-phenyl}-piperidin-4-yl)-(4-methyl-piperazin-1-yl)-methanone], for which the IC50 was < 0.1 µM in assay [1] (ALK Kinase Inhibition) and 0.1 to 1 µM in assay [2] (JAK2 Kinase Inhibition).

`Cc1cc(N2CCN(C)CC2)ccc1Nc1ncc2ccc(-c3cccc(Cl)c3)n2n1` [Example 68, [7-(3-Chloro-phenyl)-pyrrolo[2,1-f][1,2,4]triazin-2-yl]-[2-methyl-4-(4-methyl-piperazin-1-yl)-phenyl]-amine]: the IC50 in assay [1] (ALK Kinase Inhibition) and in assay [2] (JAK2 Kinase Inhibition) was < 0.1 µM throughout.

In the case of `Cc1cc(Nc2ncc3ccc(-c4cccc(S(=O)(=O)NC(C)(C)C)c4)n3n2)ccc1C1CCN(CC(N)=O)CC1` [Example 938, 2-(4-{4-[7-(3-tert-Butylsulfamoyl-phenyl)-pyrrolo[2,1-f][1,2,4]triazin-2-ylamino]-2-methyl-phenyl}-piperidin-1-yl)-acetamide], the IC50 in assay [1] (setting [3]) and in assay [2] (setting [4]) was < 0.1 µM each time.

Regarding `CN1CCN(c2ccc(Nc3ncc4ccc(-c5ccccc5[S+](C)[O-])n4n3)cc2)CC1` (stereo not drawn) [Example 404, [7-(2-Methanesulfinyl-phenyl)-pyrrolo[2,1-f][1,2,4]triazin-2-yl]-[4-(4-methyl-piperazin-1-yl)-phenyl]-amine], the values for the IC50 in assay [1] (ALK Kinase Inhibition) and in assay [2] (JAK2 Kinase Inhibition) were 0.1 to 1 µM and < 0.1 µM, respectively.

For `Cc1nc2cc(Nc3ncc4ccc(-c5cccc(S(C)(=O)=O)c5)n4n3)ccc2o1` [Example 599, [7-(3-Methanesulfonyl-phenyl)-pyrrolo[2,1-f][1,2,4]triazin-2-yl]-(2-methyl-benzoxazol-5-yl)-amine], the IC50 in assay [1] (setting [3]) is 1 to 10 µM; in assay [2] (setting [4]), < 0.1 µM.
